Biological target: T1, YcgRLIC_11920
T1 construct: gene LIC_11920; full-length protein, N-terminal 6x histidine tag
Test: ITC ([…] °C; […] at […] °C), […] c-di-GMP:protein stoichiometry
Type: binding

## Nc1nc2c(ncn2[C@@H]2O[C@@H]3COP(=O)(O)O[C@H]4[C@@H](O)[C@H](n5cnc6c(=O)[nH]c(N)nc65)O[C@@H]4COP(=O)(O)O[C@H]3[C@H]2O)c(=O)[nH]1 [c-di-GMP]
  Kd: 0.06 µM

Source: article PMC11800159, “Insertion of a Divergent GAF-like Domain Defines a Novel Family of YcgR Homologues That Bind c-di-GMP in Leptospirales” (ACS Omega, 2025)
